Results on four compounds are retold here after patent US11912693B2, “Compounds for modulating S1P1 activity and methods of using the same” (TREVENA, INC., priority 2017, dated 2024).

Test [1] relates to STZ-induced diabetic neuropathy. Briefly: Tactile allodynia and thermal hyperalgesia in streptozotocin-induced (STZ) diabetic neuropathy model. Type of test: in vivo, Sprague Dawley rats. Particulars: for Active Doses in STZ Diabetic Neuropathy Model (mg/kg, po) (p < 0.05 compared to STZ + VEH treated mice) MECHANICAL: mechanical allodynia, manual von Frey; for Active Doses in STZ Diabetic Neuropathy Model (mg/kg, po) (p < 0.05 compared to STZ + VEH treated mice) THERMAL: thermal hyperalgesia, paw withdrawal latency. The method, then: A cohort of 48 male Sprague Dawley rats, weighing 225-250 g at arrival, was group housed under constant temperature, humidity and a 12-hour light-dark cycle. Following acclimation to the animal colony, the animals were tested for baseline withdrawal responses to mechanical allodynia and thermal hyperalgesia using the methods described below in Chaplan, S. R., Bach, […]., Chung, J. M. and Yaksh, T. L. Quantitative assessment of tactile allodynia in the rat paw. J. Neurosci. Methods 53: 55-63, 1994; Joris, J. L., Dubner, R. and Hargreaves, K. M. Opioid analgesia at Peripheral Sites: a Target for Opioids Released during Stress and Inflammation? Anesthesia and Analgesia 66(12), 1277-81, 1987; and Morrow, T. J. Animal Models of Painful Diabetic Neuropathy: The STZ rat model. Current Protocols in Neuroscience, November; Chapter 9, Unit 9.18, 2004.. […] Two days later (on Day 3), hyperglycermia was confirmed by existence of blood glucose >350 mg/dL as measured by glucometer, and the animal health was monitored biweekly for 12 days. For measures of mechanical allodynia, rats were preselected for experimentation only if the pain threshold 7-14 days after STZ injection (pre-treatment) was reduced by 10 grams of force relative to the response of the individual paw before STZ challenge (pre-induction), namely, with clear presence of allodynia. The rats were randomized based on pre-dose mechanical allodynia scores to balanced treatment groups. The animals were tested prior to study inclusion for mechanical allodynia by the manual von Frey test on Day 20 (Chaplan up/down method using von Frey filaments on the plantar surface of the paw). The manual von Frey test was repeated at 0.5 or 1 hr following administrations of test articles, vehicle, and reference compound via the specified route(s) and on Day 21 post-surgery. […] The rats were randomized based on pre-dose thermal hyperalgesia scores to balanced treatment groups. Rats were preselected (with clear presence of thermal hyperalgesia) on Day 20. Thermal hyperalgesia was measured at 1 or 1.5 hr after dosing of test articles, vehicle, and reference compound via the specified route(s) on Day 21. Each rat was placed within a plastic box atop a glass floor for 20 to 30 minutes. A light beam under the floor was aimed at the plantar surface of the left hind paw. The time was measured automatically when the paw was withdrawn away from the thermal stimulus. A cut-off latency of 23 sec was imposed. The latency to withdrawal was obtained for each rat and defined as the heat pain threshold. Mean thresholds and withdrawal latencies were analyzed via Two Way ANOVA followed by Dunnett's Multiple Comparison tests to STZ+VEH group with differences considered significant at p<0.05.

In test [2] the test system is spinal nerve ligation peripheral neuropathy. The experiment in a line: Tactile allodynia and thermal hyperalgesia in spinal nerve ligation (SNL) peripheral neuropathy model. Type of test: in vivo, Sprague Dawley rats. The method, then: A cohort of 48 male Sprague Dawley rats, weighing 225-250 g at arrival, was group housed under constant temperature, humidity and a 12-hour light-dark cycle. Following acclimation to the animal colony, the animals were tested for baseline withdrawal responses to mechanical allodynia and thermal hyperalgesia using the methods described in. Chaplan, S. R., Bach, […]., Chung, J. M. and Yaksh, T. L. Quantitative assessment of tactile allodynia in the rat paw. J. Neurosci. Methods 53: 55-63, 1994; Joris, J. L., Dubner, R. and Hargreaves, K. M. Opioid analgesia at Peripheral Sites: a Target for Opioids Released during Stress and Inflammation? Anesthesia and Analgesia 66(12), 1277-81, 1987; and Kim, S. H. and Chung, J. M. An experimental model of peripheral neuropathy produced by segmental spinal nerve ligation in the rat. Pain 50: 335-63, 1992. […] Thermal hyperalgesia was measured at 1 or 1.5 hr after dosing of test articles, vehicle, and reference compound via the specified route(s) on Day 21. […] The time was measured automatically when the paw was withdrawn away from the thermal stimulus. […] Mean thresholds and withdrawal latencies were analyzed via Two Way ANOVA followed by Dunnett's Multiple Comparison tests to SNL+VEH group with differences considered significant at p<0.05.

In test [3] the test system is oxaliplatin induced peripheral neuropathy. Briefly: Reversal of allodynia induced by oxaliplatin in mice (von Frey frequency method). Type of test: in vivo, c57bl/6 mice. Particulars: tested 30 min after dosing. The method, then: Compounds were tested for efficacy in mouse models of chemotherapy induced peripheral neuropathy. […] For these studies […]/6 mice are habituated to the test environment and baseline measurements of pain sensitivity are assessed. To determine mechanical responses, the threshold for responses to punctate mechanical stimuli (mechanical hyperalgesia) was tested according to the frequency method. In brief, the plantar surface of the animal hindpaw was stimulated with a single von Frey monofilament (0.4 g) for approximately 1-2 seconds. If there was a withdrawal response, it was recorded as a positive response. A response was defined as a lifting or shaking of the paw upon stimulation. This was repeated ten times for each mouse. The final measurement for each mouse is the % non-response to stimulation for the ten trials. The % non-response to stimulation is converted to a % MPE. For paclitaxel induced peripheral neuropathy, a series of injections of PAC (6 mg/kg, i.p.) on days 1, 3, 5 and 7 is used to induce peripheral neuropathy. After approximately 14 days from the initiation of PAC injections, animals are re-assessed for mechanical sensitivity. […] On test day animals are dosed with compounds either subcutaneously or orally and tested for mechanical response by the frequency method either 30 min (s.c.) or 60 min (p.o.) after drug administration. Data is presented as a % MPE. For oxaliplatin induced peripheral neuropathy, a series of injections of OXA (4 mg/kg, i.p.) on days 1-5 is used to induce peripheral neuropathy. After approximately 14 days from the initiation of PAC injections, animals are re-assessed for mechanical sensitivity. […] On test day animals are dosed with compounds subcutaneously and tested for mechanical response by the frequency method 30 min after drug administration. Data is presented as a % MPE. One or more of the compounds show reversal of chemotherapeutic induced peripheral neuropathy.

Take `CCC1(CC)CC(=O)c2cc(-c3nc(-c4cccnc4)no3)ccc2O1` [Compound 103, 2,2-diethyl-6-[3-(pyridin-3-yl)-1,2,4-oxadiazol-5-yl]-3,4-dihydro-2H-1-benzopyran-4-one]: in test [1], the “Active Doses in STZ Diabetic Neuropathy Model (mg/kg, po) (p < 0.05 compared to STZ + VEH treated mice) MECHANICAL” value is recorded as below 100 mg/kg and the “Active Doses in STZ Diabetic Neuropathy Model (mg/kg, po) (p < 0.05 compared to STZ + VEH treated mice) THERMAL” value is given as below 100 mg/kg. Also, in test [2] (mechanical allodynia, manual von Frey), the “Active Doses in SNL Neuropathy Model (mg/kg) (p < 0.05 compared to SNL + VEH treated mice) MECHANICAL” value is recorded as below 100 mg/kg. Also, the “Active Doses in SNL Neuropathy Model (mg/kg) (p < 0.05 compared to SNL + VEH treated mice) THERMAL” value in test [2] (thermal hyperalgesia, paw withdrawal latency) is given as below 100 mg/kg.
For the compound `COc1ccccc1-c1nc(-c2ccc3c(c2)nnn3C(C)C)no1` [Compound 287, 3-(1-isopropyl-1H-benzo[d][1,2,3]triazol-5-yl)-5-(2-methoxyphenyl)-1,2,4-oxadiazole], in test [3], the “Screen @ 3 mg/kg sc (% MPE)” value is above 50 % MPE.
With `Cc1ccccc1-c1noc(-c2ccc3c(c2)nnn3C(C)C)n1` [Compound 293, 5-[3-(2-methylphenyl)-1,2,4-oxadiazol-5-yl]-1-(propan-2-yl)-1H-1,2,3-benzotriazole], in test [1], the “Active Doses in STZ Diabetic Neuropathy Model (mg/kg, po) (p < 0.05 compared to STZ + VEH treated mice) MECHANICAL” value is below 100 mg/kg and the “Active Doses in STZ Diabetic Neuropathy Model (mg/kg, po) (p < 0.05 compared to STZ + VEH treated mice) THERMAL” value was below 100 mg/kg.
Regarding `CCC1(CC)CC(=O)c2cc(-c3nc(-c4cn[nH]c4)no3)ccc2O1` [Compound 469, 6-(3-(1H-pyrazol-4-yl)-1,2,4-oxadiazol-5-yl)-2,2-diethylchroman-4-one], in test [1], the “Active Doses in STZ Diabetic Neuropathy Model (mg/kg, po) (p < 0.05 compared to STZ + VEH treated mice) MECHANICAL” value is reported as below 100 mg/kg and the “Active Doses in STZ Diabetic Neuropathy Model (mg/kg, po) (p < 0.05 compared to STZ + VEH treated mice) THERMAL” value is given as below 100 mg/kg.
